Laboratory results reported in patent publication US20160068571A1, “THERAPEUTIC AGENT FOR CARDIAC TAMPONADE” (Research Institute for Protein Science Co., priority 2013, published 2016).
Where no end group is shown, it is not given here.

Assays:
Type in all cases: in vivo, Vietnamese minipigs
[1] = test system: histamine; test: Plasma histamine in porcine cardiac tamponade model; settings: 15 minutes of the post-tamponade phase; AcPepA 4 mg/kg iv; FIG. 4A
Experimental: (§1) The animals were randomly allocated to either of three experimental groups. Group 1 (n=6) served as the sham^-operated group to which the same time-frame and sampling conditions as in the groups of 2 (n=7) and 3 (n=6) were applied, but without causing cardiac tamponade. Left lateral thoracotomy was performed in all groups. In the groups which developed cardiac tamponade, namely, in the group not treated with AcPepA (herein also referred to as “non-treated group”) and the group treated with AcPepA (herein also referred to as “treated group”), a cannula was fixed into the pericardial cavity. […] After elapse of this period, the fluid was removed from the pericardial cavity and the animals were monitored for 180 minutes post-tamponade. […]
(§2) Plasma concentrations of protein HMGB-1 were determined with a commercially available protein HMGB-1 ELISA kit (Shino-Test Corporation, Kanagawa, Japan). Plasma levels of big-endothelin, a 38 amino acid precursor protein of endothelin-1 (ET-1), were determined with a commercially available kit (Biochemica Hungaria Kft., Budapest, Hungary). Plasma histamine concentrations were determined by commercially available enzyme-linked immunoassay (Quantikine ultrasensitive EIA kit for histamine; Biomedica Hungaria Kft, Budapest, Hungary).

[2] = test system: protein HMGB-1; test: Plasma HMGB-1 in porcine cardiac tamponade model; settings: after cardiac tamponade; AcPepA 4 mg/kg iv; FIG. 4C
Experimental: as §1, §2

[3] = test system: acute porcine model of experimental cardiac tamponade; test: Macro-hemodynamic measurements in acute porcine model of experimental cardiac tamponade; settings: for central venous pressure: FIG. 2A; for global end-diastolic volume index: FIG. 2B; for superior mesenteric artery blood flow: FIG. 3A; for heart rate: FIG. 2C
Experimental: Inbred Vietnamese minipigs of both sexes (n=19, weighing 24±3 kg) were fasted for twelve (12) hours preoperatively, but received water ad libitum. Anesthesia was induced with a mixture of ketamine (20 mg/kg) and xylazine (2 mg/kg) im and maintained with a continuous infusion of propofol (50 μL/min/kg iv; 6 mg/kg/hr). After endotracheal intubation, the animals were mechanically ventilated with the tidal volume set at 9±2 mL/kg, and the respiratory rate was adjusted to maintain the end-tidal pressure of CO2 and PaCO2 in the range of 35 to 45 mmHg. Positive end-expiratory pressure was not applied during the period of cardiac tamponade.
The animals were placed in a supine position on an electric heating pad for maintenance of body temperature between 36 and 37° C., and received an infusion of Ringer's lactate at a rate of 10 mL/kg/h during the experiment. The right femoral artery and jugular vein were cannulated for the measurement of mean arterial pressure (“MAP”) and cardiac output (“CO”) by thermodilution (PICCO catheters, PULSION Medical Systems, Germany), and for fluid or drug administration, respectively. […] An ultrasonic flow probe (Transonic Systems Inc., Ithaca, N.Y., U.S.A.) was placed around the exposed SMA to measure the mesenteric blood flow. In all protocols, the animals were monitored continuously, arterial blood gases were regularly checked (Cobas b121, Roche, Austria), and a period of 30 minutes was allowed for recovery from surgery.
The animals were randomly allocated to either of three experimental groups. Group 1 (n=6) served as the sham^-operated group to which the same time-frame and sampling conditions as in the groups of 2 (n=7) and 3 (n=6) were applied, but without causing cardiac tamponade. Left lateral thoracotomy was performed in all groups. In the groups which developed cardiac tamponade, namely, in the group not treated with AcPepA (herein also referred to as “non-treated group”) and the group treated with AcPepA (herein also referred to as “treated group”), a cannula was fixed into the pericardial cavity. A pericardial tamponade was induced for 60 minutes by the intrapericardial administration of colloid solution, while the mean artery pressure was kept in the interval of 40 to 45 mmHg. After elapse of this period, the fluid was removed from the pericardial cavity and the animals were monitored for 180 minutes post-tamponade. Group 3 (the treated group) was treated with AcPepA (a single administration of 4 mg/kg in 5 mL saline iv into the jugular vein in a 5-minute infusion) after 45 minutes of cardiac tamponade. The beginning of tamponade is denoting 0 minute. Vehicle (saline) administration was applied in the groups of 1 and 2 by the same protocol.
Central venous pressure (“CVP”) and blood flow signals were continuously monitored and automatically registered with a computerized data-acquisition system (SPELL Haemosys; Experimetria Ltd., Budapest, Hungary). Mean arterial pressure, cardiac output and heart rate were measured with the PICCO Plus monitoring system (PULSION Medical Systems, Germany) and the global end-diastolic volume index (“GEDI”) was calculated with the PICCO system. Incidentally, central venous pressure was measured in each animal to exclude the influence of these factors, in parallel with the standard ventilation and fluid replacement protocols

[4] = test system: mucosal microcirculation of the small intestine; test: Intravital videomicroscopy of the intestinal microcirculation in porcine cardiac tamponade model; settings: end of the post-tamponade phase; AcPepA 4 mg/kg iv; FIG. 3B
Experimental: as §1
An intravital orthogonal polarization spectral imaging technique (Cytoscan A/R, Cytometrics, Philadelphia, Pa., USA) was used for noninvasive visualization of the mucosal microcirculation of the small intestine. […] A 10× objective lens was placed onto the serosal surface of the […], and microscopic images were recorded with an S-VHS video recorder 1 (Panasonic AG-TL 700, Matsushita Electric Ind. Co. Ltd, Osaka, Japan). Quantitative assessment of the microcirculatory parameters was performed off-line by frame-to-frame analysis of the videotaped images. […]

[5] = test system: myeloperoxidase; test: Small intestinal myeloperoxidase activity in porcine cardiac tamponade model; settings: end of the experiment; AcPepA 4 mg/kg iv; FIG. 5A
Experimental: as §1
The activity of myeloperoxidase, a marker of activation of polymorphonuclear leukocyte, was measured by using ileal biopsy samples according to the method of Kuebler et al. (for review see Kuebler W M, Abels C, Schuerer L, et al: Measurement of neutrophil content in brain and lung tissue by a modified myeloperoxidase assay. Int J Microcirc Clin Exp 1996; 16:89-97). […] Levels of myeloperoxidase were calculated via a calibration curve prepared with an myeloperoxidase standard (Sigma-Aldrich GmbH, Germany). […] Myeloperoxidase activities of such samples were measured as described above, and such data were referred to the protein content.

[6] = test system: whole blood superoxide production; test: Whole blood superoxide production in porcine cardiac tamponade model; settings: early stage of the post-tamponade phase; AcPepA 4 mg/kg iv; FIG. 5B
Experimental: The animals were randomly allocated to either of three experimental groups. Group 1 (n=6) served as the sham^-operated group to which the same time-frame and sampling conditions as in the groups of 2 (n=7) and 3 (n=6) were applied, but without causing cardiac tamponade. Left lateral thoracotomy was performed in all groups. In the groups which developed cardiac tamponade, namely, in the group not treated with AcPepA (herein also referred to as “non-treated group”) and the group treated with AcPepA (herein also referred to as “treated group”), a cannula was fixed into the pericardial cavity. A pericardial tamponade was induced for 60 minutes by the intrapericardial administration of colloid solution, while the mean artery pressure was kept in the interval of 40 to 45 mmHg. After elapse of this period, the fluid was removed from the pericardial cavity and the animals were monitored for 180 minutes post-tamponade. […]
During the measurements, 10 μL whole blood was added to 1 mL Hank's solution (PAA Cell Culture Company) and the mixture was kept at 37° C. until assay. The chemiluminometric response was measured with a Lumat LB9507 luminometer (Berthold, Germany) during a 30 minute period after addition of 100 μL of lucigenin.

[7] = test system: big-endothelin; test: Plasma big-endothelin in porcine cardiac tamponade model; settings: after cardiac tamponade; AcPepA 4 mg/kg iv; FIG. 4B
Experimental: as §1, §2

[8] = after relief of cardiac tamponade, AcPepA 4 mg/kg iv
[9] = during the period of cardiac tamponade, treated group vs sham-operated group

Question: “AcPepA: 17 amino acid peptide (Ala Ser Gly Ala Pro Ala Pro Gly Pro Ala Gly Pro Leu Arg Pro Met Phe), N-terminal alanine acetylated; C5A antagonist (Ac-ASGAPAPGPAGPLRPMF)” was tested. Which “histamine levels in blood plasma” value [1] did it give?
Answer: Its value is “decreased significantly in the treated group as compared with in the non-treated group and showed the same values as in the sham-operated group”.

Question: And the “plasma levels of protein HMGB-1” value [2]?
Answer: The value was “significant low values as compared with in the non-treated group and also showed the same values as in the sham-operated group”.

Question: What about the central venous pressure [3, 8] of the same substance?
Answer: Its central venous pressure is “significant high values as compared with in the non-treated group and also showed the same values as in the sham-operated group”.

Question: And the “global end-diastolic volume index” value [3, 8]?
Answer: Its value is “significant high values as compared with in the non-treated group and also showed the same values as in the sham-operated group”.

Question: What about the mean arterial pressure ([3]; after relief of tamponade, AcPepA 4 mg/kg iv single dose after 45 minutes of tamponade, FIG. 1A) of the same substance?
Answer: Its mean arterial pressure is “significantly high values as compared with in the non-treated group and also showed the same values as in the sham-operated group”.

Question: And the cardiac output ([3]; after relief of tamponade, AcPepA 4 mg/kg iv, FIG. 1B)?
Answer: Its cardiac output is “not affected”.

Question: And the “superior mesenteric artery blood flow” value ([3]; after relief of tamponade, AcPepA 4 mg/kg iv)?
Answer: Its value is “increased significantly after relief of tamponade as compared with in the sham-operated group”.

Question: And the “decline in cardiac output” value ([3]; during 60 minutes of cardiac tamponade, treated group (AcPepA 4 mg/kg iv after 45 minutes of tamponade), vs sham-operated group, FIG. 1B)?
Answer: The value was 65%.

Question: What about the heart rate ([3]; during cardiac tamponade, treated group vs sham-operated group) of the same substance?
Answer: Its heart rate is “significant increase in heart rate”.

Question: And the central venous pressure [3, 9]?
Answer: The central venous pressure was “significant increase of central venous pressure”.

Question: And the “global end-diastolic volume index” value [3, 9]?
Answer: The value was “significant decrease of the global end-diastolic volume index”.

Question: And the “superior mesenteric artery blood flow” value [3, 9]?
Answer: The value was “significant decrease in the superior mesenteric artery blood flow”.

Question: And the heart rate ([3]; post-tamponade period, AcPepA 4 mg/kg iv)?
Answer: Its heart rate is “significant decrease in the post-tamponade period as compared with in the non-treated group”.

Question: What about the “average red blood cell verocity” value [4] of the same substance?
Answer: Its value is “increased significantly from the baseline level and also as compared with in the non-treated group”.

Question: And the “myeloperoxidase activity in small intestine tissue samples (polymorphonuclear leukocyte accumulation)” value [5]?
Answer: Its value is “significant low values in the treated group as compared with in the non-treated group and also showed the same values as in the sham-operated group”.

Question: What about the “whole blood superoxide production” value [6] of the same substance?
Answer: The value was “low as compared with in the non-treated group and also showed the same values as in the sham-operated group”.

Question: And the plasma big-endothelin levels [7]?
Answer: The plasma big-endothelin levels was “low values as compared with in the non-treated group and also showed the same values as in the sham-operated group”.
